# Measurements as given in US20050164951A1, “Inhibitors for the soluble epoxide hydrolase” (The Regents of the University of California, priority 2003, published 2005).
# “Also recorded” adds a separate entry of the source. Where two headings read alike, the source gives them in different places.
# Experiments:
# [1] = Blood concentration after oral administration of 950 and AUDA-nBE, human pharmacokinetic profile; assay type: in vivo
# Description: FIG. 16 provides a sample preparation procedure for a pharmacokinetic study. A 5 μl whole blood sample was drawn into a capillary at a specific time point, each sample was extracted and anaylzed by LC/MS-MS. […] AUDA is the active metabolite of AUDA-nBE. […] 0.05 mg/kg. (B). 0.1 mg/kg. […] The compounds were administered at the same time in the same formulation. […] 21 mg (0.3 mg/kg) 950 and AUDA-nBE were orally administrated with starch. (B). 7 mg (0.1 mg/kg) formulated 950 and AUDA-NBE were taken with (HPMC, starch and lactose). (C). […] 950 with HPMC and Starch. (B). 950 in lactose and HPMC. […] HPMC forms a gel which slowly erodes; lactose enhances erosion at it moves through the gut and starch retards it. These formulations are combined, ball milled, and then placed in ‘0’ capsule and not compressed.
# [2] = assay type: in vitro ADME, rat and human
# Description: Both rat and human microsomes were used for the 950 metabolism study.
# [3] = test system: linoleate and arachidonate derived epoxides and diols; assay: Urinary oxylipins in angiotensin II infused rats; assay type: in vivo, rat; conditions: ANGII infused Sprague-Dawley rats, subcutaneous injection, urine 24 hr post exposure, LC/MS/MS
# Description: In this example, hypertension was induced in one group of Sprague-Dawley rats by the infusion of angiotensin II (ANGII).
# [4] = Pharmacokinetics of 687 and 800 in a human subject; assay type: in vivo; conditions: FIG. 11; single oral administration of either 687 or 800 to a human subject
# Description: (§1) Serial bled blood samples (3-50 μL) were collected from finger tips into 50 μL heparinized capillary tube at various time points (0.5, 1, 2, 4, 6, 12 and 24 hr) after administration. These samples were used to measure parent compounds and their metabolites using LC-MS/MS as described above for experiments with mice. Blood samples were added 400 μL of distilled water and 25 μL of internal standard (500 ng/mL CTU), and vortexed. The blood samples were then extracted with 500 μL of ethyl acetate twice and the ethyl acetate layer was dried under nitrogen. The residue was reconstituted in 25 μL of methanol, and aliquots (10 μL) were injected onto the LC-MS/MS system as described above. Biological end points came from clinical chemistry samples run at The University of California Davis Clinical Laboratory and a series of 6 inflammatory markers including C reactive protein were run blind at the University of California Davis Department of Nephrology.
# [5] = Metabolic stability in rat hepatic microsomes with NADPH generating system; assay type: in vitro ADME
# Description: FIG. 6 is a graph illustrating the metabolic stabilities of 1-adamantyl-3-dodecyl urea (686) and 1-cyclohexyl-3-dodecyl urea (297) in rat hepatic microsomes. Microsomes were incubated with 1 μM 686 or 297 in the presence of an NADPH generating system. Data are expressed as mean ±SD of triplicate experiments.
# To evaluate the metabolic stability of these inhibitors, the microsomal and NADPH dependent metabolism of a number of potent sEH inhibitors was evaluated. […] The first step in the metabolic transformation of the n-alkyl to n-alkanoic acid derivatives is an NAPDH dependent process carried out by cytochrome P450 dependent omega hydroxylation in rodent and human hepatic tissue preparations (see FIG. 8). When in vivo metabolism was evaluated, evidence for the beta-oxidation of the alkanoic acid derivatives was also found (see FIG. 9).
# [6] = Pharmacokinetics after oral gavage in mice; assay type: in vivo, mouse; conditions: 5 mg/kg orally
# Description: Animals. Male Swiss Webster mice, 6 weeks-old, were obtained from Charles River (Calif., USA). […] The body weight of animals used in all the experiments ranged from 28 g to 38 g. […] Administration and measurement. […] Then the samples were centrifuged at 6000 rpm for 5 min, and the ethyl acetate layer was dried under nitrogen. The residue was reconstituted in 25 μL of methanol, and aliquots (5 μL) were injected onto the LC-MS/MS system. Analysis. Pharmacokinetics analysis was performed using SigmaPlot software system (SPSS science, Chicago, Ill.). […] AUC=a/b Where: • C=the total blood concentration at time t • a=the extrapolated zero intercept b=the apparent first-order elimination rate constant
# Water solubility = assay type: physicochemical; conditions: for solubility relative to the corresponding cyclohexyl derivative: 772 vs. 789, 791 vs. 790, 297 vs. 686
# mouse sEH = target: T1, mouse sEH (Mus musculus, UniProt P34914); assay: Inhibition of recombinant mouse sEH, IC50 assay with 4-nitrophenyl-trans-2,3-epoxy-3-phenylpropyl carbonate as substrate; assay type: biochemical; conditions: Table 2, 5 min preincubation, pH 7.4, 30° C., means ± SD, read-out: IC50 (μM) Mouse sEH
# T1 construct: made in house; host or cells: baculovirus expression system
# T1 sequence (P34914 1-554): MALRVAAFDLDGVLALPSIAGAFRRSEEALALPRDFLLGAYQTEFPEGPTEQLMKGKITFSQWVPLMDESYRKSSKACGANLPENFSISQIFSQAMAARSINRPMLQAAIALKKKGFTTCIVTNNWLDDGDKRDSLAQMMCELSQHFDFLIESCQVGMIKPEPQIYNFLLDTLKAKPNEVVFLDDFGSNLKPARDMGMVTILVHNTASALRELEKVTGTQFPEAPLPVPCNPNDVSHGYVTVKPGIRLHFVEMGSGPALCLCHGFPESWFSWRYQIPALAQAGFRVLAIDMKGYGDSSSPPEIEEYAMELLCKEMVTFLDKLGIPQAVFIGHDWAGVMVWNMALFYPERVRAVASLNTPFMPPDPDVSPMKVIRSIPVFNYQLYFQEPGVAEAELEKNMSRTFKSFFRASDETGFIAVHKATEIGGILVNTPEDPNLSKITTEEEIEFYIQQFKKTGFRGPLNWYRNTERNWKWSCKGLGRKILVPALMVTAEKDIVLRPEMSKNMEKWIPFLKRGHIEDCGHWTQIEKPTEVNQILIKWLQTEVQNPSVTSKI
# Description: (§2) Assays were performed in triplicate. […] The curve was generated from at least three separate runs, each in triplicate, to obtain the standard deviation (SD) given in Table 1 thru Table 4.
# human sEH = target: T2, human sEH (Homo sapiens, UniProt P34913); assay: Inhibition of recombinant human sEH, IC50 assay with 4-nitrophenyl-trans-2,3-epoxy-3-phenylpropyl carbonate as substrate; assay type: biochemical; conditions: Table 2; […] enzyme, 5 min preincubation, pH 7.4, 30° C.; means ± SD; read-out: IC50 (μM) Human sEH
# T2 construct: made in house; host or cells: baculovirus expression system
# T2 sequence (P34913 1-555): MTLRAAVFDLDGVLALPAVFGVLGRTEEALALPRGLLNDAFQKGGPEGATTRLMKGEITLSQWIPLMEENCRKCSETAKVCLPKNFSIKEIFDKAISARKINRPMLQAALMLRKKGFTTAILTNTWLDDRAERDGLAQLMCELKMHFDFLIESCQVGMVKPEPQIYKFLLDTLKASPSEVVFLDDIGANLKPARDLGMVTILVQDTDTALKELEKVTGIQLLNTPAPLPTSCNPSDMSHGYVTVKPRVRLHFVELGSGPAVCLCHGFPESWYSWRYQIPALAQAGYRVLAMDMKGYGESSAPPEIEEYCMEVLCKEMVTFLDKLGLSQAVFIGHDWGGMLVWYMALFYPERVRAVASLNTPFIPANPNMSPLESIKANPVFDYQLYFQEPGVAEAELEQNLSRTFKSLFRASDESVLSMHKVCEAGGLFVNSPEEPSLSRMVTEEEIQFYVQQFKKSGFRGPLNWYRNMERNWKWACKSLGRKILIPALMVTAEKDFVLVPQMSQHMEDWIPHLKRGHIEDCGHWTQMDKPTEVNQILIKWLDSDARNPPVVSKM
# Description: as §2
# [7] = Oral AUDA butyl ester (800) in a patient with end stage renal disease: clinical chemistry, C reactive protein, blood pressure; assay type: in vivo, human
# Description: as §1, with “These” for “Serial bled blood samples (3-50 μL) were collected from finger tips into 50 μL heparinized capillary tube at various time points (0.5, 1, 2, 4, 6, 12 and 24 hr) after administration. These”
# mouse and human sEH = assay: sEH IC50 assay, comparisons of the text made for both enzymes or without naming the enzyme; assay type: biochemical
# Description: as §2
# [8] = Effect of compound 950 and of Norvasc on blood pressure; assay type: in vivo; conditions: 950 0.05 mg/Kg per day
# [9] = Cream on index finger of a patient with Raynaud syndrome before cold exposure; assay type: in vivo, human; conditions: cream applied to a finger before cold exposure
# Description: The experimental design involved preparing the Vanicream solutions with ethanol with or without active compound, then covering the syringe barrels with aluminum foil. The compounds were applied in a bind fashion approximately 20 minutes before exposure and then the hands were exposed to cold for approximately 30 minutes and the results recorded. The following day the results were decoded. Treatments (left or right index finger) were random. […] The test compounds were dissolved in ethanol at a concentration of 10 mg/mL and this in turn mixed with commercial Vanicream at a 10:1 concentration to give 1 mg/mL final concentration of active ingredient in the Vanicream/ethanol mixture. Approximately 100 μL of cream (±sEH inhibitor) were applied to a single finger. The first two columns indicate that over a range of exposure conditions the results from the left and right […] were similar. […] Since the experiment was run blind, the left and right index fingers were treated in a random fashion. For convenience the treatments are shown on the right in each case. […]
structure (smiles),measurement,setting,value
CCOCCOCCOCCCCCNC(=O)NC12CC3CC(CC(C3)C1)C2 [Compound 950],T1/2 compared with AUDA-BE,"[1]; human, in vivo, po, 0.1 mg/kg",longer T1/2
same,pharmacokinetics,[1]; in vivo,improved pharmacokinetics
same,major metabolite in vitro,[2],hydroxy metabolite was the major metabolite
"O=C(O)CCCCCCCCCCCNC(=O)NC12CC3CC(CC(C3)C1)C2 [Compound 687, 1-(1-adamantyl)-3-(12-dodecanoic acid)urea]","urinary diol concentrations (DHOMEs, DHETs)",[3],decrease in diol concentrations
same,"urinary epoxides (EpOMEs, EETs)",[3],increase in urinary epoxides
same,"maximum circulating concentration of 687, humans compared with mice",[4],much higher in humans
same,metabolic stability in microsomal preparations,"[5]; 1 μM, NADPH generating system, FIGS. 6 and 7",stable
same,time to reach the maximum concentration,[6],30 min
"CCCCCCCCCCCCNC(=O)NC12CC3CC(CC(C3)C1)C2 [Compound 686, 1-adamantyl-3-dodecylurea, reference compound]",solubility relative to the corresponding cyclohexyl derivative,Water solubility,approximately 2 x
same,IC50,mouse sEH; 0.12 μM enzyme,0.05 ± 0.01 µM
same,IC50,human sEH,0.1 ± 0.01 µM
same,time to reach the maximum concentration,[6],120 min
"CCCCOC(=O)CCCCCCCCCCCNC(=O)NC12CC3CC(CC(C3)C1)C2 [Compound 800, 1-(1-Adamantyl)-3-(11-butoxycarbonylundecyl)urea]",Cmax,"[1]; FIG. 23, 7mg each in tristerate (0.1 mg/kg) orally, human",rather high Cmax
same,performance of simple dry formulations,"[1]; FIG. 26, starch, HPMC/starch/lactose or lactose, 0.1-0.3 mg/kg orally",very poorly
same,absorption depending on formulation,"[1]; FIGS. 23 and 26, oral, human, listed as AUDA-BE",only absorbed efficiently in a lipid formulation; also recorded: bioavailable in lipid formulations
same,serum profile of regulatory lipids,"[7]; patient approaching ESRD, brief oral treatment with low doses",altered the serum profile of regulatory lipids in a positive manner
same,Creatinine,"[7]; same trial, ESRD without drug 5.0, normal 0.5-1.3",4.9 mg/dL
CCCCCOC(=O)CCCNC(=O)NC12CC3CC(CC(C3)C1)C2 [Compound 789],solubility relative to the corresponding cyclohexyl derivative,Water solubility,approximately 2 x
same,water solubility,"Water solubility; compared with non-functionalized lipophilic inhibitors (791, 790)",increases their water solubility
same,IC50,mouse sEH; […] enzyme,0.05 ± 0.01 µM
same,increase of inhibitor potency over the 3-chlorophenyl analog (767),mouse and human sEH,10 fold
same,IC50,human sEH,0.17 ± 0.01 µM
CCOC(=O)C1=C(COCCN)NC(C)=C(C(=O)OC)C1c1ccccc1Cl (stereo not shown) [Norvasc],Systolic Avg.,"[8]; Norvasc 5.0 mg per day (separate experiment), W/O 950 151, W/O Norvasc 145",143
same,Pulse Avg.,"[8]; Norvasc 5.0 mg per day, W/O 950 97, W/O Norvasc 79",89
same,Diastolic Avg.,"[8]; Norvasc 5.0 mg per day, W/O 950 103, W/O Norvasc 100",95
"CCCCCCCCCCCCNC(=O)NC1CCCCC1 [Compound 297, 1-cyclohexyl-3-dodecyl urea, reference compound]",IC50,human sEH,0.14 ± 0.01 µM
same,effect on Raynaud's symptoms,[9],reduces severity of Raynaud's symptoms
"O=C(NC1CCCCC1)NC12CC3CC(CC(C3)C1)C2 [Compound 192, 1-adamantyl-3-cyclohexylurea]",metabolic stability in microsomal preparations,"[5]; rat, microsomes",improved stability
